Results: patent publication US5672603A, “Apoptosis regulating composition” (Otsuka Pharmaceutical Co., Ltd., priority 1991, dated 1997)
Several values for one entry are separate records, joined by “and”; a condition that tells them apart may be missing. Equal entries are not always repeated. Entries after “also recorded” stand apart in the source; their conditions may differ.

Key:
anti-platelet antibodies = assay: Assay of anti-platelet antibodies in autoimmune disease mice; type: in vivo, W/BF1 mice; conditions: for Anti-platelet antibodies, % positive, Mean ± SE / Anti-platelet antibodies, % positive, individual mice: 20 weeks of age; for Anti-platelet antibodies, % positive, Mean ± SE: untreated 19.6 ± 5.5
Experimental: W/BF1 :(NZW×BXSB)F1 mice were used at the age of 14 weeks (purchased from Kiwa Experimental Animal). Groups of 10 mice were used in each experiment.
Compound 1 (Lot No. 9D87M) was used as suspended in a 0.5% solution of carborymethylcellulose (CMC, Cellogan). Compound 1 was administered to mice by oral garage in doses of 100 and 300 mg/kg body weight/day for 6 weeks from 14 weeks of age to 20 weeks of age according to the 5-day administration and 2-day cessation schedule. As a control, an untreated group was provided. […] Statistic analysis was performed by the generalized Wilcoxon test with respect to the untreated group.
(3) Oyaizu et al. have reported that in W/BF1 mice, thrombocytopenia is associated with the appearance of anti-platelet antibodies.
The platelets collected from Balb/c mice and the plasma collected from W/BF1 mice treated up to the age of 20 weeks were incubated together at room temperature for 30 minutes. The mixture was washed twice and allowed to react with FITC-labeled anti-mouse IgG (Tago, Code No. 6250), and after staining, anti-platelet antibodies were assayed with an FACS analyzer (EPICS-Profile II, Coulter). The negative control was set so that the plasma from Balb/c mice was 98% negative. The positive rate of each sample was determined.

HL-60 cells = assay: Induction of differentiation of HL-60 cells (CD11b expression, flow cytometry); type: cell-based, human; parameters: reference not given here; conditions: 30 μg/ml; 3 days; CD11b fluorescence
Experimental: HL-60 cells were cultivated in RPMI-1640 medium supplemented with 10% of FCS at 37° C. under 5% CO2, and the cell concentration was adjusted to 5×10^4 cells/ml.
Then, the above-mentioned medium containing 30 μg/ml of each test compound was added to each well of 6-well microplates (Costar), followed by 3 days of incubation at 37° C. under 5% CO2. In a control group, the above medium alone was added and incubation was performed in the same manner. Thereafter, each cultured cell suspension was sampled into an Eppendorf tube and, after staining with 0.2% trypan blue-containing phosphate buffer, viable cells were counted using a hematocytometer.
The above cells were adjusted to 1×10^7 cells/ml. To 100 μl of the cell suspension was added 5 μl of a solution of fluorescein isothiocyanate (FITC)-labeled anti-human CD11b antibody (Mol; Coulter) and the reaction was allowed to proceed on ice in the dark for 30 minutes. Then, cells were washed twice with PBS (phosphate-buffered saline; Nissui Pharmaceutical) containing 0.1% of BSA (bovine serum albumin; Sigma), finally suspended in 500 μl of the BSA-containing PBS and measured for fluorescence intensity by flow cytometry using Profile II (Coulter).

CMK cells = assay: Apoptosis-regulating effect: DNA fragmentation in CMK cells (agarose gel electrophoresis); type: cell-based, human; conditions: 30 μg/ml; 2 or 4 days
Experimental: CMK cells were used to prepare a suspension of 1×10^5 cells/ml in RPMI-1640 medium supplemented with fetal calf serum and Compound 1 was added at a concentration of 30 μg/ml. The mixture was incubated in a culture flask at 37° C. for 2 or 4 days. As a control, the medium to which the solvent alone was added was similarly incubated.
Cells were harvested by centrifugation at 4° C. for 10 minutes at 200×G. The pellet was dissolved in a hypotonic buffer (10 mM Tris-HCl, 1 mM EDTA and 0.2% Triton 100, pH 7.5) and the solution was centrifuged at 4° C. for 10 minutes at 13000×G. The supernatant was collected and allowed to stand in 50% isopropyl alcohol -0.5M NaCl at -20° C. overnight. The resultant precipitate was centrifuged at 4° C. for 10 minutes at 13000×G, the supernatant was discarded, and the sediment was dried. The dry sediment was resuspended in 10 mMTris-HCl-1 mM EDTA (pH 7.4). To the supernatant was added RNase at a final concentration of 0.1 mg/ml and the mixture was incubated at 37° C. for 1 hour.
To a sample corresponding to the cell count of 1×10^6 was added 1/5 volume of a loading buffer containing 15 mM EDTA, 2% SDS, 50% glycerol and 0.05% bromphenol blue, and the mixture was incubated at 65° C. for 10 minutes.
The culture sample thus obtained was subjected to electrophoresis in 1.5% agarose gel at 100 V for 100 minutes. The DNA was stained with ethidium bromide. […]

PC12 cells = assay: Effect on PC12 cells (morphology, phase contrast microscope)
Experimental: PC12 cells subcultured in Dulbecco's modified Eagle's medium (D-MEM) supplemented with 5% heat-inactivated (56° C., 30 minutes) horse serum and 10% fetal calf serum (FCS) were transferred onto collagen-coatedplastic Petri dishes (35 mm in diameter) at a concentration of 6×10^4 cells/3 ml medium.

## COc1ccc(C(=O)N2CCN(c3ccc4c(c3)CCC(=O)N4)CC2)cc1OC [Compound 1, 6-[4-(3,4-Dimethoxybenzoyl)-1-piperazinyl]-3,4-dihydrocarbostyril]
anti-platelet antibodies; 100 mg/kg/day
  Anti-platelet antibodies, % positive, Mean ± SE: 13.3 ± 2.7% and 13.2±2.7%
anti-platelet antibodies; 100 mg/kg, mouse Nos. 1-10
  Anti-platelet antibodies, % positive, individual mice: 3.7% and 13.5% and 3.1% and 17.3% and 21.5% and 16.8% and 18.2% and 7.8% and 8.5% and 27.1%
anti-platelet antibodies; 300 mg/kg/day
  Anti-platelet antibodies, % positive, Mean ± SE: 10.7 ± 2.2%
anti-platelet antibodies; 300 mg/kg, mouse Nos. 1-4, 6-9
  Anti-platelet antibodies, % positive, individual mice: 2.3% and 11.4% and 14.1% and 6.0% and 16.4% and 12.1% and 4.1% and 19.5%
anti-platelet antibodies; 100 and 300 mg/kg/day
  Inhibition of anti-platelet antibodies (in words): dose-dependent inhibition of anti-platelet antibodies
HL-60 cells
  Induction of differentiation promoting effect: 322
CMK cells
  Apoptosis (DNA fragmentation): promotes apoptosis of CMK cells
PC12 cells; 30 μg/ml, day 3
  Cells with morphological changes induced: 30-50 % of the total cell population
PC12 cells; 30 μg/ml, most prominent with FCS 0.3%, day 3
  Formation of nerve fiber-like processes: formation of nerve fiber-like processes; also recorded: formation of nerve-like processes is observed
PC12 cells; with NGF, 0.3% FCS, vs Compound 1 or NGF alone
  Elongation of the process, combination of Compound 1 and NGF: promotes elongation of the process as compared with Compound 1 or NGF alone
